# Data published in article PMC10180488, “Novel Derivatives of Eugenol as a New Class of PPARγ Agonists in Treating Inflammation: Design, Synthesis, SAR Analysis and In Vitro Anti-Inflammatory Activity” (Molecules, 2023).
# “And” between values parts separate entries of the source, which are not always exact repeats. Equal values may be shown once.
# Key:
# [1] = molecular target: T1, human PPARγ- LBD (Homo sapiens, UniProt P37231); assay: Lanthascreen TR-FRET PPARγ competitive binding assay; settings: for Raw Data / Raw Data - Background: TR-FRET
# T1 construct: a mixture of a human PPARγ- LBD labelled with glutathione S-transferase (GST)
# T1 sequence (P37231 238-503 limits assumed): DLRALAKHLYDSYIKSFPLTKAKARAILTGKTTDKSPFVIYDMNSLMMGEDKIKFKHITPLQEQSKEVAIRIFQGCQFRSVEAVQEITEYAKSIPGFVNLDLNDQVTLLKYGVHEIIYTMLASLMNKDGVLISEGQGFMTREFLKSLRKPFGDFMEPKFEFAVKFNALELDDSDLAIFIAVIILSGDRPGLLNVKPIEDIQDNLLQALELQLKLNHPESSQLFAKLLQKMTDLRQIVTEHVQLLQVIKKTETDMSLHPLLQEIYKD
# [2] = molecular target: egg albumin (Gallus gallus, UniProt P01012); assay: Albumin denaturation assay; format: biochemical, hen; settings: mean ± SD (n = 3), read-out: Percentage inhibition of denaturation of albumin
# egg albumin, sequence (P01012 2-386): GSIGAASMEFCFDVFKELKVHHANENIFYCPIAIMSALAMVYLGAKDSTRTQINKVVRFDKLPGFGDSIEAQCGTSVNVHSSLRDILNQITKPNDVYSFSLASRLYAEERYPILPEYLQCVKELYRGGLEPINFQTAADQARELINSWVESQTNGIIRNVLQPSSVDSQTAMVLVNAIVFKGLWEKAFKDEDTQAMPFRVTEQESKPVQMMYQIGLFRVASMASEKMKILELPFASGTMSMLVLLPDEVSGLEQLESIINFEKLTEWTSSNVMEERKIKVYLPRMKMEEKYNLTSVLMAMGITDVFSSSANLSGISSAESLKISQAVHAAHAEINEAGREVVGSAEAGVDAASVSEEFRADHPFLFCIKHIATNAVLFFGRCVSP
# [3] = tested on: human red blood cells (HRBC); assay: HRBC membrane stabilization method; settings: for HRBC membrane stabilization (percentage protection against HRBC lysis): mean ± SD (n = 3)
# Protocol: The principle of this procedure is to stabilize the membrane of human red blood cells by hypotonic membrane lysis. […] Lysosomal enzyme levels typically decrease as the HRBC membrane is stabilized.
# The packed cells in this blood solution were separated after centrifugation at 3000 rpm [41]. The packed cells were cleaned using an isosaline solution, and then, isosaline was used to prepare a 10% v/v suspension. This HRBC suspension was employed to estimate its anti-inflammatory properties. Different concentrations of the synthesized compounds and the reference standard were each combined with 1 mL of phosphate buffer (pH 7.4), 2 mL of hyposaline, and 0.5 mL of HRBC solution. A total of 2.0 mL of distilled water was utilized as the control. The assay mixtures were all centrifuged at 3000 rpm after 30 min of incubation at 37°C. The following formula was used to determine the percentage of stabilized HRBC membranes. Percentage protection= 100 − (OD sample/OD control) × 100
smiles,measurement,setting,value
"C=CCc1ccc(OCC(=O)Nc2ccccc2)c(OC)c1 [Compound 1a, 2-(4-Alyl-2-methoxyphenoxy)-N-phenylacetamide]",IC50,[1]; Lanthascreen TR-FRET competitive binding,29.8 µM
same,Raw Data,[1]; 0.0000512 µM,1.916 RLU
same,Raw Data - Background,[1]; 0.0000512 µM,1.681 RLU
same,Raw Data,[1]; 0.000256 µM,1.915 RLU
same,Raw Data - Background,[1]; 0.000256 µM,1.68 RLU
same,Raw Data,[1]; 0.00128 µM,1.916 RLU
same,Raw Data - Background,[1]; 0.00128 µM,1.681 RLU
same,Raw Data,[1]; 0.0064 µM,1.92 RLU
same,Raw Data - Background,[1]; 0.0064 µM,1.685 RLU
same,Raw Data,[1]; 0.032 µM,2.058 RLU
same,Raw Data - Background,[1]; 0.032 µM,1.823 RLU
same,Raw Data,[1]; 0.16 µM,1.971 RLU
same,Raw Data - Background,[1]; 0.16 µM,1.736 RLU
same,Raw Data,[1]; 0.8 µM,1.899 RLU
same,Raw Data - Background,[1]; 0.8 µM,1.664 RLU
same,Raw Data,[1]; 4 µM,1.717 RLU
same,Raw Data - Background,[1]; 4 µM,1.483 RLU
same,Raw Data,[1]; 20 µM,1.047 RLU
same,Raw Data - Background,[1]; 20 µM,0.813 RLU
same,Raw Data,[1]; 100 µM,0.245 RLU
same,Raw Data - Background,[1]; 100 µM,0.01 RLU
same,inhibition at 6.25 µM,[2]; 6.25 µM,1.67 ± 0.37%
same,inhibition at 12.5 µM,[2]; 12.5 µM,5.32 ± 0.37%
same,inhibition at 25 µM,[2]; 25 µM,10.2 ± 0.24%
same,inhibition at 50 µM,[2]; 50 µM,14.5 ± 0.43%
same,inhibition at 100 µM,[2]; 100 µM,19.2 ± 0.24%
same,inhibition at 200 µM,[2]; 200 µM,25.1 ± 0.31%
same,inhibition at 400 µM,[2]; 400 µM,32.3 ± 0.37%
same,HRBC membrane stabilization (percentage protection against HRBC lysis),[3]; 6.25 µM,4.79 ± 0.48%
same,HRBC membrane stabilization (percentage protection against HRBC lysis),[3]; 12.5 µM,10.45 ± 0.38%
same,HRBC membrane stabilization (percentage protection against HRBC lysis),[3]; 25 µM,21.40 ± 0.36%
same,HRBC membrane stabilization (percentage protection against HRBC lysis),[3]; 50 µM,28.78 ± 0.66%
same,HRBC membrane stabilization (percentage protection against HRBC lysis),[3]; 100 µM,37.88 ± 0.28%
same,HRBC membrane stabilization (percentage protection against HRBC lysis),[3]; 200 µM,47.23 ± 0.48%
same,HRBC membrane stabilization (percentage protection against HRBC lysis),[3]; 400 µM,60.88% and 60.88 ± 0.36%
same,IC50,"[3]; Homo sapiens, Erythrocyte, read-out: IC50 Values, HRBC membrane stabilization method",79.5 µM
